8 substances from patent publication US20130323776A1, “CARRIER PEPTIDE FRAGMENT AND USE THEREOF” (Toagosei Co. Ltd., priority 2009, published 2013) can be followed below.

Test [1] deals with Human neonate foreskin fibroblasts (ATCC Catalogue No. CRL-2097). The experiment in a line: Evaluation of cell membrane permeability function, confocal laser scanning microscopy of fluorescently labeled peptide. The test is classed as cell-based. The settings on record: 1 μM peptide, 1 or 4 hours culture; for penetration of the cell membrane from outside the cell and transfer into the cytoplasm: methanol fixed. On the procedure: Human neonate foreskin fibroblasts (ATCC Catalogue No. CRL-2097) were used as the eukaryotic cells, and the cell membrane permeability capability of the samples (constructs for transferring a foreign substance) obtained in Example 1 above was investigated.
More specifically, the abovementioned fibroblasts were cultured in a liquid mixture of 90% Eagle MEM culture medium (containing 0.1% nonessential amino acids, 2 mM L-glutamine, 1 mM sodium pyruvate, and 1.5 g/L sodium hydrogen carbonate) and 10% serum (FBS) as the culture medium.
The cultured cells were trypsinized for 1 min at 37° C. with a 0.25% trypsin solution. After the abovementioned treatment, the trypsin was deactivated with FBS-containing medium, and a cell suspension (test sample for foreign substance transfer) was prepared by adjusting the cell concentration to approximately 5×10^4 cells/mL with the culture medium.
Next, 0.5 mL of the abovementioned cell suspension was placed in a designated cell culturing container (culture slide with a surface coating of 0.1% gelatin), and the cells were incubated overnight at 37° C. in a 5% CO2 atmosphere. After incubation the medium was replaced with fresh culture medium, and the 1 mM sample solutions of each of the samples prepared in abovementioned Example 1 were added to a cell culture container so that the final sample concentration (peptide concentration) would be 1 μM. In this case 0.5 μL of sample solution was added to the container. Then the samples were incubated at 37° C. for either 1 or 4 hours in a 5% CO2 atmosphere.
The cells after 1 hour of culture and the cells after 4 hours of culture were each rinsed in PBS and fixed with methanol (on ice for 10 min).
Next the methanol-fixed samples (cells) were mounted using Prolong® Gold Antifade Reagent (Invitrogen) that contains the nuclear stain DAPI (4′,6-diamidino-2-phenylindole). Then the localization within the cells of the peptide bonded to the fluorescent dye (i.e., fluorescently labeled peptide) in each test sample (i.e., the abovementioned mounted test samples after methanol fixation) was investigated using a confocal scanning laser microscope. Part of the results are presented herein as micrographs.

For test [2], the system named is human iPS cells (cell line 201B2-082008KU). The experiment in a line: Evaluation of cell membrane permeability function in iPS cells, confocal laser scanning microscopy of fluorescently labeled peptide. The format is cell-based. The settings on record: 1 μM peptide, 1 or 4 hours culture; for penetration of the cell membrane from outside the cell and transfer into the cytoplasm of iPS cells: human iPS cells on MEF feeder cells, methanol fixed; for foreign substance transfer efficiency toward stem cells such as iPS cells: human iPS cells. From the text: The target cells for transferring the foreign substance were changed from human neonate foreskin fibroblasts to human iPS cells (human induced pluripotent stem cells), and the cell membrane permeability capability of the two samples (constructs for transferring a foreign substance) obtained in Example 1 above was investigated. It should also be noted that the iPS cells (cell line 201B2-082008KU) and the mouse embryonic fibroblast feeder cells (cell line SNL 76/7, hereinafter “MEF”) used in this example were provided by the Yamanaka Research Laboratory of the Institute for Frontier Medical Sciences, Kyoto University (professor Shinya Yamanaka).
First the obtained MEF were inactivated by a mitomycin C treatment (3 hours) and then trypsinised in a 0.25% trypsin solution containing 1 mM EDTA. After the above treatment, the trypsin was deactivated with culture medium containing FBS, and the MEF were adjusted to a suitable cell density using D-MEM medium (Dulbecco's Modified Eagle Medium: Gibco) containing MEF culture medium (7% FBS: Gibco), 2 mM L-glutamine (Gibco), 50 units/mL penicillin, and 50 μg/mL streptomycin (Gibco), and the abovementioned MEF were seeded onto a culture container (in the form of a culture slide or plate) with a surface coating of 0.1% gelatin. In this case, the MEF were seeded so that the cell density would be approximately 1.25×10^5 cells/mL. Next, the abovementioned cell culture containers were incubated overnight at 37° C. in a 5% CO2 atmosphere.
Thereafter, the feeder cells were prepared by removing the MEF culture medium and rinsing with PBS.
Separately, CTK solution (0.25% trypsin solution containing 0.1 mg/mL collagenase IV (Gibco), 1 mM calcium chloride, and 20% KSR (KnockOut® Serum Replacement)) was added to the obtained iPS cell line, the MEF were peeled therefrom, and the cells were rinsed with PBS.
Next, 1 mL hESC culture medium (i.e., human ES cell medium, in this case, DMEM/F12 culture medium (Gibco) containing 20% KSR (Gibco), 2 mM L-glutamine (Gibco), 0.1% nonessential amino acids (Gibco), 0.1 mM 2-mercaptoethanol (Gibco), 50 units/mL penicillin, and 50 μg/mL streptomycin (Invitrogen, 4 ng/mL bFGF (basic fibroblast growth factor)) was added, the iPS cells were peeled off using a cell scraper, and the colony was broken apart by gentle pipetting.
A suspension of iPS cells obtained in this manner was seeded onto the feeder cells in the culture containers that had been prepared as described above. Then, the above-mentioned hESC medium was added, and the cell culture containers were incubated overnight at 37° C. in a 5% CO2 atmosphere.
After incubation overnight, the culture medium was removed from the culture containers, and the abovementioned hESC medium to which one of the 1 mM sample solutions prepared in abovementioned. Example 1 had been added to make a final sample concentration (pipetted concentration) of 1 μM was added to the culture containers. Then the samples were incubated at 37° C. for either 1 or 4 hours in a 5% CO2 atmosphere.
The cells after 1 hour of culture and cells after 4 hours of culture were each rinsed in PBS (phosphate buffered saline) and fixed with methanol (on ice for 10 min).
Next, the same treatment as in Example 2 was performed, and the localization within the iPS cells of the peptide that was bonded to the fluorescent dye (i.e., fluorescently labeled) was investigated using a confocal scanning laser microscope. Part of the results are presented herein as micrographs.

Ends that are not written are not given here. * marks the point of attachment. FITC = O=C1OC2(c3ccc(O)cc3Oc3cc(O)ccc32)c2ccc(NC(=S)*)cc21; Acp = not defined here

“(FITC-Acp)-RSRKYTSWYVALKRTLKERCLQVVRSLVK ({FITC-Acp}-RSRKYTSWYVALKRTLKERCLQVVRSLVK; not fully specified (C-terminus); printed as (FITC-Acp)-RSRKYTSWYVALKRTLKERCLQVVRSLVK; reading uncertain) [Sample No. 14]”: in test [1], the “foreign substance transfer efficiency toward somatic cells such as fibroblasts” value is given as “extremely high”; the “penetration of the cell membrane from outside the cell and transfer into the cytoplasm” value is “transferred into the cytoplasm”. For the same substance, the “penetration of the cell membrane from outside the cell and transfer into the cytoplasm of iPS cells” value (“penetration of the cell membrane … of iPS cells” below) in test [2] was “transferred into the cytoplasm of iPS cells”.

For “(FITC-Acp)-GRCRRLANFGPRKRRRRRR ({FITC-Acp}-GRCRRLANFGPRKRRRRRR; not fully specified (C-terminus); printed as (FITC-Acp)-GRCRRLANFGPRKRRRRRR; reading uncertain) [Sample No. 4]”, in test [1], the “foreign substance transfer efficiency toward somatic cells such as fibroblasts” value is reported as “extremely high”; the “penetration of the cell membrane from outside the cell and transfer into the cytoplasm” value was “transferred into the cytoplasm”. For the same substance, in test [2], the “penetration of the cell membrane … of iPS cells” value is listed as “transferred into the cytoplasm of iPS cells”; the “foreign substance transfer efficiency toward stem cells such as iPS cells” value was “extremely high”.

As for “(FITC-Acp)-IMRRRGL ({FITC-Acp}-IMRRRGL; not fully specified (C-terminus); printed as (FITC-Acp)-IMRRRGL; reading uncertain) [Sample No. 7]”, the “penetration of the cell membrane from outside the cell and transfer into the cytoplasm” value in test [1] is “almost no passage through the cell membrane”. Besides, the “penetration of the cell membrane … of iPS cells” value in test [2] is given as “almost no passage through the cell membrane”.

Turning to “(FITC-Acp)-KKLKKRNK ({FITC-Acp}-KKLKKRNK; not fully specified (C-terminus); printed as (FITC-Acp)-KKLKKRNK; reading uncertain) [Sample No. 8]”, the “penetration of the cell membrane from outside the cell and transfer into the cytoplasm” value in test [1] is “almost no passage through the cell membrane”. The “penetration of the cell membrane … of iPS cells” value in test [2] is “almost no passage through the cell membrane”.

Consider “(FAM)-MQRKPTIRRKNLRLRRK ({FAM}-MQRKPTIRRKNLRLRRK; not fully specified (C-terminus); printed as (FAM)-MQRKPTIRRKNLRLRRK) [Sample No. 6]”, for which, in test [1], the “foreign substance transfer efficiency toward somatic cells such as fibroblasts” value is recorded as “extremely high”; the “penetration of the cell membrane from outside the cell and transfer into the cytoplasm” value is reported as “transferred into the cytoplasm”. Moreover, in test [2], the “penetration of the cell membrane … of iPS cells” value is listed as “transferred into the cytoplasm of iPS cells”; the “foreign substance transfer efficiency toward stem cells such as iPS cells” value is reported as “extremely high”.

On to “(FAM)-MAKSIRSKHRRQMRMMKRE ({FAM}-MAKSIRSKHRRQMRMMKRE; not fully specified (C-terminus); printed as (FAM)-MAKSIRSKHRRQMRMMKRE) [Sample No. 2]”, for which, in test [1], the “penetration of the cell membrane from outside the cell and transfer into the cytoplasm” value was “transferred into the cytoplasm”.

Consider “(FITC-Acp)-MARRRRHRGPRRPRPP ({FITC-Acp}-MARRRRHRGPRRPRPP; reading uncertain; also: printed as (FITC-Acp)-MARRRRHRGPRRPRPP) [Sample No. 3]”, for which the “penetration of the cell membrane from outside the cell and transfer into the cytoplasm” value in test [1] is given as “transferred into the cytoplasm”.

With “(FITC-Acp)-RRRKRNRDARRRRRKQ ({FITC-Acp}-RRRKRNRDARRRRRKQ; reading uncertain; also: printed as (FITC-Acp)-RRRKRNRDARRRRRKQ) [Sample No. 5]”, in test [1], the “penetration of the cell membrane from outside the cell and transfer into the cytoplasm” value is listed as “transferred into the cytoplasm”.
